Measured values: article PMC8903829 (eLife, 2022)
pEC50: −log10 of the molar value. Values joined by “and” are separate entries in the source; they are usually repeats but may differ in a detail not shown here. Equal values may be shown once. Read-outs that look alike come from different tables or passages of the source.

How the values were obtained:
[1] = tested on: wild-type Sprague Dawley rats; assay: DC-Maximal electroshock seizure assay (DC-MES); format: in vivo, rat; conditions: for WT rat DC-MES, fraction of animals seizing: sheet Figure 5G, 5H, 5I (rats)
Experimental: (§1) Phenytoin was formulated in physiologic saline and was administered intraperitoneally (i.p.) using a 25-gauge needle at a dose volume of 10 mL/kg. All compounds were administered 2 hr prior to electrical seizure induction for all seizure models employed in this study.
The maximal electroshock seizure (MES) assay has been extensively used in the search for anticonvulsant substances ([Löscher et al., 1991]; [Piredda et al., 1985]; [White et al., 1995]). The MES assay is sensitive to nonselective NaV inhibitors. It is considered a model for generalized tonic-clonic (GTC) seizures and provides an assessment of seizure spread. Briefly, an electroshock of direct current (DC) was delivered by corneal electrodes (Electro Convulsive Therapy Unit 57,800 from Ugo Basile). The parameters of stimulation were different between mice and rats. In CF1 mice aged 9–12 weeks, a direct current of 50 mA (60 Hz) was delivered for 0.2 s (pulse width of 0.5ms), whereas in Sprague Dawley (SD) rats aged 5–6 weeks, a direct current of 150 mA (60 Hz) was delivered for 0.3 s (pulse width of 0.5ms). Immediately prior to the electroshock, the animals’ eyes were anesthetized with a drop of Alcaine (0.5% proparacaine hydrochloride).
An animal was considered protected in the assay in the absence of a GTC with hindlimb extension and is then scored ‘0’. An animal displaying GTC with hindlimb extension was considered not protected and is then scored ‘1’. The experimenter scoring the seizure behavior was blinded to the treatment.

[2] = Bioanalytical assessment of plasma and brain concentrations after rat DC-MES assay; format: in vivo; conditions: for concentration at 2 h: rat
[3] = tested on: Scn8a^N1768D/+ mice; assay: Modified 6 Hz psychomotor seizure assay; format: in vivo, mouse; conditions: for SCN8a mouse 6Hz chronic, Fraction of animals seizing: day 7, 2 hr after 13th dose; for SCN8a mouse 6Hz acute, Fraction of animals seizing: 2 hr
Experimental: as §1
Scn8a^N1768D/+heterozygous mice were tested at 5 weeks of age (p35). The modified 6 Hz seizure assay in Scn8a^N1768D/+heterozygous mice was adapted from the traditional 6 Hz assay psychomotor seizure assay to provide a measure of in vivo on target (NaV1.6 mediated) efficacy ([Barton et al., 2001]). The modified assay used a low frequency (6 Hz) but long-duration stimulation (3 s) to induce seizures. […] An electroshock (6 Hz, 12 mA) was delivered for 3 s (at 0.3-ms pulse interval) by corneal electrodes (Electro Convulsive Therapy Unit 57,800 from Ugo Basile). Immediately prior to the electroshock, the animals’ eyes were anesthetized with a drop of Alcaine (0.5% proparacaine hydrochloride).
An animal was considered protected in the assay upon prevention of GTC with hindlimb extension and was then scored ‘0’. An animal displaying GTC with hindlimb extension was considered not protected and is then scored ‘1’. The experimenter scoring the seizure behavior was blinded to the treatment.

Cc1cc(S(=O)(=O)Nc2cscn2)c(F)cc1N(C)[C@H]1CCN(Cc2ccccc2)C1 [NBI-921352]
pEC50 ([1]; WT rat DC-MES (oral; phenytoin i.p.), read-out: plasma EC50): 6.82 | pEC50 ([1]; WT rat DC-MES, 2 hr post dose (oral; phenytoin i.p.), read-out: brain EC50): 7.43 | ED50 ([1]; WT rat DC-MES, oral, 2 hr, read-out: ED50, prevention of GTC with hindlimb extension): 3.7 mg/kg | WT rat DC-MES, fraction of animals seizing ([1]; 1 mg/kg PO every 12 hr, day 7, 2 hr after 13th dose): 0.4286 | WT rat DC-MES, fraction of animals seizing ([1]; 1 mg/kg PO single dose, 2 hr, 1 mg/kg): 0.75 and 1 | WT rat DC-MES, fraction of animals seizing ([1]; 3 mg/kg PO every 12 hr, day 7, 2 hr after 13th dose): 0.25 | WT rat DC-MES, fraction of animals seizing ([1]; 3 mg/kg PO single dose, 2 hr, 3 mg/kg): 0.6 and 0.5714 and 0.4 | WT rat DC-MES, fraction of animals seizing ([1]; 10 mg/kg PO single dose, 2 hr): 0.1429 | WT rat DC-MES, fraction of animals seizing ([1]; 30 mg/kg PO single dose, 2 hr): 0 | concentration at 2 h ([2]; brain, po, 1 mg/kg, sheet Figure 5G, 5H, 5I (rats), 1 mg/kg PO every 12 hr, day 7, 2 hr after 13th dose, read-out: Mean [Brain]): 12.5 nM | concentration at 2 h ([2]; brain, po, 1 mg/kg, sheet Figure 5G, 5H, 5I (rats), 1 mg/kg PO single dose, 2 hr, read-out: Mean [Brain]): 16.6 nM | concentration at 2 h ([2]; brain, po, 3 mg/kg, sheet Figure 5G, 5H, 5I (rats), 3 mg/kg PO every 12 hr, day 7, 2 hr after 13th dose, read-out: Mean [Brain]): 39.6 nM | concentration at 2 h ([2]; brain, po, 10 mg/kg, sheet Figure 5G, 5H, 5I (rats), 10 mg/kg PO single dose, 2 hr, read-out: Mean [Brain]): 161 nM | concentration at 2 h ([2]; brain, po, 30 mg/kg, sheet Figure 5G, 5H, 5I (rats), 30 mg/kg PO single dose, 2 hr, read-out: Mean [Brain]): 213 nM | concentration at 2 h ([2]; plasma, po, 1 mg/kg, sheet Figure 5G, 5H, 5I (rats), 1 mg/kg PO every 12 hr, day 7, 2 hr after 13th dose, read-out: Mean [Plasma]): 33.9 nM | concentration at 2 h ([2]; plasma, po, 3 mg/kg, sheet Figure 5G, 5H, 5I (rats), 3 mg/kg PO every 12 hr, day 7, 2 hr after 13th dose, read-out: Mean [Plasma]): 123 nM | concentration at 2 h ([2]; plasma, po, 10 mg/kg, sheet Figure 5G, 5H, 5I (rats), 10 mg/kg PO single dose, 2 hr, read-out: Mean [Plasma]): 1150 nM | concentration at 2 h ([2]; plasma, po, 30 mg/kg, sheet Figure 5G, 5H, 5I (rats), 30 mg/kg PO single dose, 2 hr, read-out: Mean [Plasma]): 2330 nM | Mean [Brain] ([2]; sheet Figure 5G, 5H, 5I (rats), 1 mg/kg PO single dose, 2 hr, 1 mg/kg): 0.02047 µM and 0.01429 µM and 0.01541 µM | SCN8a mouse 6Hz chronic, Fraction of animals seizing ([3]; 2 mg/kg PO every 12 hr): 0.5 | SCN8a mouse 6Hz acute, Fraction of animals seizing ([3]; 2 mg/kg PO single dose): 0.8 | SCN8a mouse 6Hz acute, Fraction of animals seizing ([3]; 3 mg/kg PO single dose): 0.8 | SCN8a mouse 6Hz chronic, Fraction of animals seizing ([3]; 6 mg/kg PO every 12 hr): 0.34 and 0.429 and 0.5 | SCN8a mouse 6Hz acute, Fraction of animals seizing ([3]; 6 mg/kg PO single dose): 0.5 and 0.667 and 0.834 and 0.715 | SCN8a mouse 6Hz acute, Fraction of animals seizing ([3]; 10 mg/kg PO single dose): 0.57 and 0.4 | SCN8a mouse 6Hz acute, Fraction of animals seizing ([3]; 30 mg/kg PO single dose): 0.43 and 0.5 and 0.333 and 0.4 | SCN8a mouse 6Hz acute, Fraction of animals seizing ([3]; 200 mg/kg PO single dose): 0 | SCN8a mouse 6Hz acute, Fraction of animals seizing ([3]; 300 mg/kg PO single dose): 0 | pEC50 ([3]; Mus musculus, Scn8a^N1768D/+ 6 Hz model, 2 hr post dose (oral; phenytoin i.p.), read-out: brain EC50): 7.19 | pEC50 ([3]; Mus musculus, Scn8a^N1768D/+ 6 Hz model, 2 hr post dose, read-out: plasma EC50): 7.43 | ED50 ([3]; Mus musculus, oral, 2 hr prior to stimulation, read-out: ED50, prevention of GTC with hindlimb extension): 15 mg/kg

COC[C@@H](NC(C)=O)C(=O)NCc1ccccc1 [lacosamide, Lacosamide, reference compound]
pEC50 ([1]; Rattus norvegicus, 2 h, read-out: brain EC50): 5.37 | pEC50 ([1]; Rattus norvegicus, read-out: plasma EC50): 4.61 | Rat DC-MES Fraction of animals seizing ([1]; Study18060, 2 mg/kg): 1 | Rat DC-MES Fraction of animals seizing ([1]; Study18060, 6 mg/kg): 0.8571 | Rat DC-MES Fraction of animals seizing ([1]; Study18060, 12 mg/kg): 0.5714 | Rat DC-MES Fraction of animals seizing ([1]; Study18068, 100 mg/kg): 0 | concentration at 2 h ([2]; in vivo, 2 mg/kg, Study18060, 2 mg/kg, Rat DC-MES, read-out: Mean [Brain]): 641 nM | concentration at 2 h ([2]; in vivo, 2 mg/kg, Study18060, 2 mg/kg, Rat DC-MES, read-out: Mean [Palsma]): 2970 nM | concentration at 2 h ([2]; in vivo, 6 mg/kg, Study18060, 6 mg/kg, Rat DC-MES, read-out: Mean [Brain]): 1780 nM | concentration at 2 h ([2]; in vivo, 6 mg/kg, Study18060, 6 mg/kg, Rat DC-MES, read-out: Mean [Palsma]): 8430 nM | concentration at 2 h ([2]; in vivo, 12 mg/kg, Study18060, 12 mg/kg, Rat DC-MES, read-out: Mean [Brain]): 3740 nM | concentration at 2 h ([2]; in vivo, 12 mg/kg, Study18060, 12 mg/kg, Rat DC-MES, read-out: Mean [Palsma]): 22900 nM | concentration at 2 h ([2]; in vivo, 100 mg/kg, Study18068, 100 mg/kg, Rat DC-MES, read-out: Mean [Brain]): 38200 nM | concentration at 2 h ([2]; in vivo, 100 mg/kg, Study18068, 100 mg/kg, Rat DC-MES, read-out: Mean [Palsma]): 73500 nM | pEC50 ([3]; Mus musculus, 2 h, read-out: brain EC50): 5.48 | SCN8A mouse 6HZ Fraction of animals seizing ([3]; Study18007, 3 mg/kg): 0.429 | SCN8A mouse 6HZ Fraction of animals seizing ([3]; Study18007, 10 mg/kg): 0.286 | SCN8A mouse 6HZ Fraction of animals seizing ([3]; Study18007, 30 mg/kg): 0.286 | SCN8A mouse 6HZ Fraction of animals seizing ([3]; Study18011, 1 mg/kg): 0.858 | SCN8A mouse 6HZ Fraction of animals seizing ([3]; Study18011, 30 mg/kg): 0.5 | SCN8A mouse 6HZ Fraction of animals seizing ([3]; Study18011, 56 mg/kg): 0.286 | SCN8A mouse 6HZ Fraction of animals seizing ([3]; Study18028, 10 mg/kg): 0.375 | SCN8A mouse 6HZ Fraction of animals seizing ([3]; Study18042, 10 mg/kg): 0.5
